Assay results: patent US11702400B2, “Salt types, crystal forms, and preparation methods for benzopyrazole compounds as RHO kinase inhibitors” (MEDSHINE DISCOVERY INC., priority 2019, dated 2023)

Key:
[1] = Pharmacokinetic study of the crystal form A of the compound of formula (II-1) in Beagle dogs; assay type: in vivo
Method: Experimental purpose: To study the pharmacokinetics of the compounds in Beagle dogs
Experimental materials: Beagle dogs (12, half male and half female)
Experimental procedure: The pharmacokinetic characteristics of the compounds were tested in Beagle dogs after intravenous (IV) and oral (PO) administration using standard protocols. The candidate compounds were prepared into 0.5 mg/mL and 1.5 mg/mL clarified solutions and administrated to Beagle dogs for single intravenous injection and oral administration. The solvent for both intravenous and oral administration was 5% DMSO/95% (10% hydroxypropyl β-cyclodextrin) aqueous solution. 12 beagle dogs were used in this project, 6 beagle dogs (half male and half female) were administered intravenously at a dose of 1 mg/kg and plasma samples were collected at […], 0.5, 1, 2, 4, 8, 12, 24, 36, 48 and 72 h after administration, and the other 6 beagle dogs (half male and half female) were administered orally by gavage at a dose of 7.5 mg/kg and plasma samples were collected at 0.25, 0.5, 1, 2, 4, 8, 12, 24, 36, 48 and 72 h after administration. 15 μL of plasma sample was added to a 96-well plate, and 300 μL of internal standard working solution (MeOH (containing 1.00 ng/mL Verapamil and 0.1% formic acid (FA)): ACN (v:v, 50:50) solution) was added to precipitate the proteins, the 96-well plate was shaken for 15 min, followed by centrifugation at 4° C., 3220 g for 15 min. 150 μL of supernatant was placed in a new 96-well plate with 150 μL of aqueous solution containing 0.1% formic acid (FA) and shaken for 10 min, and then centrifuged at 4° C., 3220 g for 5 min. The sample was directly injected, and the plasma drug concentration was quantitatively analyzed by LC-MS/MS analysis method, and pharmacokinetic parameters were calculated, such as peak concentration (Cmax), clearance rate (CL), half-life (T1/2), […] (Vdss), area under the drug-time curve (AUC0-last), bioavailability (F), etc.

[2] = Accelerated stability test of the crystal form A of the compound of formula (II-1); assay type: physicochemical; details: 40° C./75% RH
Method: Accelerated stability test: each sample was weighed 0.8 g (accelerated 1 month, accelerated 2 months) or 1.2 g (accelerated 3 months, accelerated 6 months) into double-layer low-density polyethylene (LDPE) bags, and each layer of LDPE bags was pierced and sealed, and then the LDPE bags were put into aluminum foil bags and heat sealed, respectively, and put into 40° C./75% RH conditions for investigation.

[3] = Influence factor stability test of the crystal form A of the compound of formula (II-1); assay type: physicochemical
Method: High humidity (25° C./92.5% RH): 1 g of each sample was weighed and the sample was placed in an open flat weighing bottle (70×35 mm) under 25° C./92.5% RH conditions, and then placed in a comprehensive drug stability chamber (25° C./92.5% RH) for investigation.
High temperature (60° C.): 1 g of each sample was weighed and the sample was placed in an open flat weighing bottle under 60° C. conditions, and then placed in a blast drying oven (60° C.) for investigation.
Illumination: 1 g of each sample was weighed. The samples with illumination condition were placed in a clean watch glass, spread into a thin layer and put into 5000±500 lux (visible light) with 90 μw/cm^2 (UV) conditions for illumination.

[4] = Solid stability test of the crystal form A of the compound of formula (II-1) (XRPD); assay type: physicochemical
Method: About 10 mg of the crystal form was accurately weighed and added to a dry and clean glass flask, spread into a thin layer, covered with aluminum foil, pierced small holes and placed under the influence factor test conditions and under accelerated conditions. Samples placed under illumination (visible light 1200000 Lux, UV 200 W) conditions were placed in clear glass flasks, fully exposed, and samples used for XRPD detection were placed separately.
After the samples were removed at the time point, the cover was covered, and the flask was sealed using sealing film, and stored in −20° C. refrigerator. When preparing the sample, the sample was removed from the refrigerator, restored to room temperature; 10 mL of 80% ACN was added, and the sample was dissolved by sonication for 2 min to obtain a solution with a concentration of about 1 mg/mL, then the liquid phase was used for injection analysis, and the detection results were compared with the initial detection results on day 0.
Preparation of standard solution on day 0: About 10 mg of the crystal was weighed and added to a 10 mL volumetric flask, dissolved with 80% ACN and the volume was fixed to the scale.

## COc1cccc(C(CN)NC(=O)c2cc(-c3ccc4[nH]nc(C)c4c3)ccn2)c1.Cl.Cl (centres unmarked)
[1]; Beagle dogs, IV 1 mg/kg
  Clearance rate CL: 22.3 mL/min/kg
  Half-life T1/2 (IV): 12.4 h
  Tissue distribution Vdss: 18.6 L/kg
[1]; Beagle dogs, IV 1 mg/kg, PO 7.5 mg/kg
  Bioavailability F: 90.4%
[1]; Beagle dogs, PO 7.5 mg/kg
  Area under drug-time curve AUC0-last PO: 12.6 µM·h
[1]; Beagle dogs, half male and half female, PO 7.5 mg/kg, read-out: Peak concentration Cmax
  Cmax: 834 nM
[1]; beagle dogs
  pharmacokinetic properties (conclusion in words): good pharmacokinetic properties
[2]; 0 day
  Content: 99.5%
  Impurity at RRT 0.66: 0.06%
  Impurity at RRT 0.85: 0.34%
  Impurity at RRT 0.90: 0.02%
  Impurity at RRT 1.64: 0.06%
  Total impurities: 0.46%
[2]; 1 month
  Content: 100.0%
  Impurity at RRT 0.66: 0.06%
  Impurity at RRT 0.85: 0.36%
  Impurity at RRT 0.90: 0.02%
  Impurity at RRT 1.64: 0.05%
  Total impurities: 0.47%
[2]; 2 months
  Content: 99.6%
  Impurity at RRT 0.66: 0.06%
  Impurity at RRT 0.85: 0.33%
  Impurity at RRT 0.90: 0.03%
  Impurity at RRT 1.64: 0.04%
  Total impurities: 0.39%
[2]; 3 months
  Content: 98.8%
  Impurity at RRT 0.66: 0.06%
  Impurity at RRT 0.85: 0.33%
  Impurity at RRT 0.90: 0.04%
  Impurity at RRT 1.64: 0.04%
  Total impurities: 0.39%
[3]; 0 day
  Content: 99.5%
  Impurity at relative retention time (RRT) 0.66: 0.06%
  Impurity at relative retention time (RRT) 0.85: 0.34%
  Impurity at relative retention time (RRT) 0.90: 0.02%
  Impurity at relative retention time (RRT) 1.64: 0.06%
  Total impurities: 0.46%
[3]; 25° C./92.5% RH, 1 month
  Content: 98.9%
  Impurity at relative retention time (RRT) 0.66: 0.06%
  Impurity at relative retention time (RRT) 0.85: 0.32%
  Impurity at relative retention time (RRT) 0.90: 0.03%
  Impurity at relative retention time (RRT) 1.64: 0.05%
  Total impurities: 0.43%
[3]; 60° C., 1 month
  Content: 99.6%
  Impurity at relative retention time (RRT) 0.66: 0.06%
  Impurity at relative retention time (RRT) 0.85: 0.31%
  Impurity at relative retention time (RRT) 0.90: 0.06%
  Impurity at relative retention time (RRT) 1.64: 0.04%
  Total impurities: 0.43%
[3]; Illumination, 10 days
  Content: 97.6%
  Impurity at relative retention time (RRT) 0.66: 0.09%
  Impurity at relative retention time (RRT) 0.85: 0.31%
  Impurity at relative retention time (RRT) 0.90: 0.02%
  Impurity at relative retention time (RRT) 1.64: 0.05%
  Total impurities: 0.51%
[3]; illumination, high temperature and high humidity
  stability in influence factor test (conclusion in words): stable
[4]; 0 day
  Crystal form: Crystal form A
[4]; 92.5% high humidity conditions
  solid stability (conclusion in words): crystal transformation will occur
[4]; High humidity (relative humidity 75%, open), 5 days
  Crystal form: Crystal form A
[4]; High humidity (relative humidity 75%, open), 10 days
  Crystal form: Crystal form A
[4]; High humidity (relative humidity 92.5%, open), 5 days
  Crystal form: Crystal form C
[4]; High humidity (relative humidity 92.5%, open), 10 days
  Crystal form: Crystal form C
[4]; High temperature (60° C., open), 5 days
  Crystal form: Crystal form A
[4]; High temperature (60° C., open), 10 days
  Crystal form: Crystal form A
[4]; High temperature and humidity (40° C. relative humidity 75%, open), 5 days
  Crystal form: Crystal form A
[4]; High temperature and humidity (40° C. relative humidity 75%, open), 10 days
  Crystal form: Crystal form A
[4]; High temperature and humidity (60° C. relative humidity 75%, open), 5 days
  Crystal form: Crystal form A
[4]; High temperature and humidity (60° C. relative humidity 75%, open), 10 days
  Crystal form: Crystal form A
[4]; Illumination (total illuminance = 1.2 × 10^6 Lux·hr/near UV = 200 w·hr/m^2, open), 5 days
  Crystal form: Crystal form A
[4]; Illumination (total illuminance = 1.2 × 10^6 Lux·hr/near UV = 200 w·hr/m^2, open), 10 days
  Crystal form: Crystal form A
[4]; high temperature, 75% humidity and strong illumination conditions
  solid stability (conclusion in words): good stability
